In US20250100960A1, “NAPHTHALENE AND QUINOLINE ANALOGS AS RXFP1 AGONISTS” (BRISTOL-MYERS SQUIBB COMPANY, priority 2021, published 2025):

target: T1, human RXFP1 (Homo sapiens, UniProt Q9HBX9); assay: hRXFP1 HEK293 cAMP assay; type: cell-based; conditions: HEK293 cells stably expressing human RXFP1; intracellular cAMP by HTRF; 30 min at room temperature
T1 construct: expressed in transfected cells; host or cells: HEK293
T1 sequence (Q9HBX9 1-757): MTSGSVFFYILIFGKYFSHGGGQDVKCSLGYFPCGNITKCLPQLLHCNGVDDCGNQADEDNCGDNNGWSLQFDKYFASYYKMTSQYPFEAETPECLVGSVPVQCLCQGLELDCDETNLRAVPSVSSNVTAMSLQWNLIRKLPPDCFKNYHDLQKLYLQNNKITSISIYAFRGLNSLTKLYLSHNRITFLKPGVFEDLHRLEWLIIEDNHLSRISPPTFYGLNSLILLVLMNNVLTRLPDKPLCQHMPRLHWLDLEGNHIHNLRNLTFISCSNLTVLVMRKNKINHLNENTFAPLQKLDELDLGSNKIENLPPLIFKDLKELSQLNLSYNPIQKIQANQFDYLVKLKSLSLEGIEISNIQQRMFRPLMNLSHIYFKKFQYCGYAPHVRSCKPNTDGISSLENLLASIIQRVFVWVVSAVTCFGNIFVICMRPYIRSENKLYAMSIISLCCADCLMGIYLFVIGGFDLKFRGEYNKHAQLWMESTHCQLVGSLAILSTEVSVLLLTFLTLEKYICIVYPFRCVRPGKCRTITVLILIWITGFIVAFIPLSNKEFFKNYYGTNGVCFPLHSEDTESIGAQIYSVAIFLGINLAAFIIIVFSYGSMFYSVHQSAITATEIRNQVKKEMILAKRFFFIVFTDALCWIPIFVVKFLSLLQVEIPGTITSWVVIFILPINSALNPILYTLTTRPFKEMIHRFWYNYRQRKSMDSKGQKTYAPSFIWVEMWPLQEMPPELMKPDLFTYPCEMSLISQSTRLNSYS
Procedure: RXFP1 Cyclic Adenosine Monophosphate (cAMP) Assays. Human embryonic kidney cells 293 (HEK293) cells and HEK293 cells stably expressing human RXFP1, were cultured in MEM medium supplemented with 10% qualified FBS, and 300 μg/ml hygromycin (Life Technologies). Cells were dissociated and suspended in assay buffer. The assay buffer was HBSS buffer (with calcium and magnesium) containing 20 mM HEPES, 0.05% BSA, and 0.5 mM IBMX. Cells (3000 cells per well, except 1500 cell per well for HEK293 cells stably expressing human RXFP1) were added to 384-well Proxiplates (Perkin-Elmer). Cells were immediately treated with test compounds in DMSO (2% final) at final concentrations in the range of 0.010 nM to 50 μM. Cells were incubated for 30 min at room temperature. The level of intracellular cAMP was determined using the HTRF HiRange cAMP assay reagent kit (Cisbio) according to manufacturer's instructions. Solutions of cryptate conjugated anti-cAMP and d2 fluorophore-labelled cAMP were made in a supplied lysis buffer separately. Upon completion of the reaction, the cells were lysed with equal volume of the d2-cAMP solution and anti-cAMP solution. After a 1 h room temperature incubation, time-resolved fluorescence intensity was measured using the Envision (Perkin-Elmer) at 400 nm excitation and dual emission at 590 nm and 665 nm. A calibration curve was constructed with an external cAMP standard at concentrations ranging from 2.7 μM to 0.1 μM by plotting the fluorescent intensity ratio from 665 nm emission to the intensity from the 590 nm emission against cAMP concentrations. The potency and activity of a compound to […] cAMP production was then determined by fitting to a 4-parametric logistic equation from a plot of cAMP level versus compound concentrations.
The examples disclosed below were tested in the human RXFP1 (hRXFP1) HEK293 cAMP assay described above and found to have agonist activity. Tables 1-3, lists EC50 values in the hRXFP1 HEK293 cAMP assay measured for the examples.

Molecule	EC50 [nM]
COc1ccc(-c2cc(C(O)C(=O)O)ccc2F)cc1C(=O)Nc1cc2ccccc2cc1C(=O)Nc1ccc(F)c(C(F)(F)F)c1 (single isomer, unassigned) [Example 4, 2-(6-fluoro-3′-((3-((4-fluoro-3-(trifluoromethyl)phenyl)carbamoyl)naphthalen-2-yl)carbamoyl)-4′-methoxy-[1,1′-biphenyl]-3-yl)-2-hydroxyacetic acid]	490
COc1ccc(C2=NOC3CC(CO)CC23)cc1C(=O)Nc1cc2ccccc2cc1C(=O)Nc1ccc(F)c(C(F)(F)F)c1 (single isomer, unassigned) [Example 13, N-(4-fluoro-3-(trifluoromethyl)phenyl)-3-(5-(5-(hydroxymethyl)-3a,5,6,6a-tetrahydro-4H-cyclopenta[d]isoxazol-3-yl)-2-methoxybenzamido)-2-naphthamide]	320
COc1ccc(C2=NOC3CC(CO)CC23)cc1C(=O)Nc1cc2ccccc2cc1C(=O)Nc1ccc(F)c(C(F)(F)F)c1 (single isomer, unassigned) [Example 14, N-(4-fluoro-3-(trifluoromethyl)phenyl)-3-(5-(5-(hydroxymethyl)-3a,5,6,6a-tetrahydro-4H-cyclopenta[d]isoxazol-3-yl)-2-methoxybenzamido)-2-naphthamide]	60
COc1ccc(C2=NOC3CC(O)CC23)cc1C(=O)Nc1cc2ccccc2cc1C(=O)Nc1ccc(F)c(C(F)(F)F)c1 (single isomer, unassigned) [Example 15, N-(4-fluoro-3-(trifluoromethyl)phenyl)-3-(5-(5-hydroxy-3a,5,6,6a-tetrahydro-4H-cyclopenta[d]isoxazol-3-yl)-2-methoxybenzamido)-2-naphthamide]	190
COc1ccc(-c2cc(C(=O)O)ccc2F)cc1C(=O)Nc1cc2ccccc2cc1C(=O)Nc1ccc(F)c(C(F)(F)F)c1 [Example 1, 6-fluoro-3′-((3-((4-fluoro-3-(trifluoromethyl)phenyl)carbamoyl)naphthalen-2-yl)carbamoyl)-4′-methoxy-[1,1′-biphenyl]-3-carboxylic acid]	1100
COc1ccc(-c2cc(C(NC(=O)C3CCOCC3)C(=O)O)ccc2F)cc1C(=O)Nc1cc2ccccc2cc1C(=O)Nc1ccc(F)c(C(F)(F)F)c1 (stereo not drawn) [Example 2, 2-(6-fluoro-3′-((3-((4-fluoro-3-(trifluoromethyl)phenyl)carbamoyl)naphthalen-2-yl)carbamoyl)-4′-methoxy-[1,1′-biphenyl]-3-yl)-2-(tetrahydro-2H-pyran-4-carboxamido)acetic acid]	4.2
COc1ccc(-c2cc(C(NC(=O)C3CCOCC3)C(=O)O)ccc2F)cc1C(=O)Nc1cc2cc(Br)c(Br)cc2cc1C(=O)Nc1ccc(F)c(C(F)(F)F)c1 (stereo not drawn) [Example 3, 2-(3′-((6,7-dibromo-3-((4-fluoro-3-(trifluoromethyl)phenyl)-carbamoyl)naphthalen-2-yl)carbamoyl)-6-fluoro-4′-methoxy-[1,1′-biphenyl]-3-yl)-2-(tetrahydro-2H-pyran-4-carboxamido)acetic acid]	190
COc1ccc(-c2cc([C@H](OC(=O)NC3CCC3)C(F)(F)F)ccc2F)cc1C(=O)Nc1cc2ccccc2cc1C(=O)Nc1ccc(F)c(C(F)(F)F)c1 [Example 5, (S)-2,2,2-trifluoro-1-(6-fluoro-3′-((3-((4-fluoro-3-(trifluoromethyl)phenyl)carbamoyl)-naphthalen-2-yl)carbamoyl)-4′-methoxy-[1,1′-biphenyl]-3-yl)ethyl cyclobutylcarbamate]	11
COc1ccc(-c2cc(C(=O)O)ccc2F)cc1C(=O)Nc1cc2c(Br)cccc2cc1C(=O)Nc1ccc(F)c(C(F)(F)F)c1 [Example 6, 3′-((8-bromo-3-((4-fluoro-3-(trifluoromethyl)phenyl)carbamoyl)naphthalen-2-yl)carbamoyl)-6-fluoro-4′-methoxy-[1,1′-biphenyl]-3-carboxylic acid]	1300
COc1ccc(-c2cc(C(=O)O)ccc2F)cc1C(=O)Nc1cc2ccc(Br)cc2cc1C(=O)Nc1ccc(F)c(C(F)(F)F)c1 [Example 8, 3′-((6-bromo-3-((4-fluoro-3-(trifluoromethyl)phenyl)carbamoyl)naphthalen-2-yl)carbamoyl)-6-fluoro-4′-methoxy-[1,1′-biphenyl]-3-carboxylic acid]	2600
COc1ccc(S(=O)(=O)CCCO)cc1C(=O)Nc1cc2ccccc2cc1C(=O)Nc1ccc(F)c(C(F)(F)F)c1 [Example 9, N-(4-fluoro-3-(trifluoromethyl)phenyl)-3-(5-((3-hydroxypropyl)sulfonyl)-2-methoxybenzamido)-2-naphthamide]	4800
COc1ccc(C#C[C@H](C)O)cc1C(=O)Nc1cc2ccccc2cc1C(=O)Nc1ccc(F)c(C(F)(F)F)c1 [Example 10, (S)—N-(4-fluoro-3-(trifluoromethyl)phenyl)-3-(5-(3-hydroxybut-1-yn-1-yl)-2-methoxybenzamido)-2-naphthamide]	5000
COc1ccc(N2CCCS2(=O)=O)cc1C(=O)Nc1cc2ccccc2cc1C(=O)Nc1ccc(F)c(C(F)(F)F)c1 [Example 11, 3-(5-(1,1-dioxidoisothiazolidin-2-yl)-2-methoxybenzamido)-N-(4-fluoro-3-(trifluoromethyl)-phenyl)-2-naphthamide]	2000
COc1ccc(-n2ncccc2=O)cc1C(=O)Nc1cc2ccccc2cc1C(=O)Nc1ccc(F)c(C(F)(F)F)c1 [Example 12, N-(4-fluoro-3-(trifluoromethyl)phenyl)-3-(2-methoxy-5-(6-oxopyridazin-1(6H)-yl)benzamido)-2-naphthamide]	1400

system: not given; assay: not given; conditions: intravenous (IV) formulation; cited from earlier work

Molecule	first-phase pharmacokinetic half-life [min]
Serelaxin	5.4
